From patent US20230150980A1, “COLLAGEN 1 TRANSLATION INHIBITORS AND METHODS OF USE THEREOF” (Anima Biotech Inc., priority 2020, published 2023)
Counter-ions that a name gives are not always drawn.

System: collagen 1
Assay: WI-38 collagen 1 inhibition assay (anti-Collagen I immunofluorescence);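 note: minus sign means inactive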
Type: cell-based
Conditions: cellular EC50, WI-38 human lung fibroblasts, values are LogEC50 classes
Description: WI-38 cells (ATCC® CCL-75™) were maintained in MEM EAGLE (NEAA) W. GLUTAMIN (Biological Industries, Cat. 06-1040-15-1A) containing 10% fetal bovine serum (FBS) and 1% Penicillin-Streptomycin Solution. To synchronize the cells (cell cycle synchronization) prior to induction of collagen synthesis, the cells were starved using DMEM-low glucose supplemented with 0.25% FBS for two hours and then without FBS for 24 hours. To induce collagen synthesis, the cells were treated with a collagen induction cocktail for the indicated time. Compounds were added with induction.
Cells in 96-well or 384-well plates were fixed for 20 min in 4% paraformaldehyde (PFA, ENCO, Cat. sc-281692). Following two washes with 1×PBS, cells were treated with hydrogen peroxide (Acros, Cat: 7722-84-1) for 10 minutes and then washed twice with 1×PBS. Cells were then incubated over-night at 4° C. with Anti-Collagen I (Sigma-Aldrich, Cat: C 2456) antibody and washed three times with 1×PBS. Cell were then incubated with a suitable secondary fluorescently-tagged antibody and nuclei stained with DAPI, for 1 hour, and then washed 3 times with 1×PBS.
Cell images were taken with Operetta (Perkin Elmer, USA), a wide-field fluorescence microscope at 20× magnification. After acquisition, the images were transferred to Columbus software (Perkin-Elmer) for image analysis. In Columbus, cells were identified by their nucleus, using the “Find Nuceli” module and cytoplasm was detected based on the secondary antibody channel. Subsequently, the fluorescent signal was enumerated in the identified cell region. Data was exported to a data analysis and visualization software, Tibco Spotfire, USA.

Row | Structure (SMILES) | COL1 Efficacy (LogEC50)
1 | c1ccc2oc(CN3CCN(c4ccncn4)CC3)nc2c1 [compound 281, 2-[(4-pyrimidin-4-ylpiperazin-1-yl)methyl]-1,3-benzoxazole hemiformate] | + (+: >−5)
2 | c1ccc2oc(CN3CCN(c4ccncc4)CC3)nc2c1 [compound 282, 2-[[4-(4-pyridyl)piperazin-1-yl]methyl]-1,3-benzoxazole formate] | + (+: >−5)
3 | c1ccn2nc(CN3CCN(c4ccncc4)CC3)cc2c1 [compound 283, 2-((4-(pyridin-4-yl)piperazin-1-yl)methyl)pyrazolo[1,5-a]pyridine 2,2,2-trifluoroacetate] | −
4 | c1cnc2cc(CN3CCN(c4ccncc4)CC3)[nH]c2c1 [compound 284, 2-[[4-(4-pyridyl)piperazin-1-yl]methyl]-1H-pyrrolo[3,2-b]pyridine] | −
5 | c1ccc2[nH]c(CN3C[C@@H]4CN(c5ccncc5)C[C@@H]4C3)cc2c1 [compound 285, 2-[[(3aS,6aR)-5-(4-pyridyl)-1,3,3a,4,6,6a-hexahydropyrrolo[3,4-c]pyrrol-2-yl]methyl]-1H-indole] | −
6 | COCCOCc1cncnc1N1CCN(Cc2cc3ccccc3[nH]2)CC1 [compound 287, 2-((4-(5-((2-methoxyethoxy)methyl)pyrimidin-4-yl)piperazin-1-yl)methyl)-1H-indole] | −
7 | Cn1cc(N2CCN(Cc3cc4ccccc4[nH]3)CC2)nn1 [compound 288, 2-((4-(1-methyl-1H-1,2,3-triazol-4-yl)piperazin-1-yl)methyl)-1H-indole] | ++ (++: −5 to −6)
8 | CCc1cncnc1N1CCN(Cc2nc3ccc(COCCOC)cc3[nH]2)CC1 [compound 289, 2-((4-(5-ethylpyrimidin-4-yl)piperazin-1-yl)methyl)-6-((2-methoxyethoxy)methyl)-1H-benzo[d]imidazole] | +++ (+++: <−6)
9 | CCc1cncnc1N1CCN(Cc2nc3ccc(OCCOC)cc3[nH]2)CC1 [compound 290, 2-((4-(5-ethylpyrimidin-4-yl)piperazin-1-yl)methyl)-6-(2-methoxyethoxy)-1H-benzo[d]imidazole] | ++ (++: −5 to −6)
10 | CCc1cncnc1N1CCN(Cc2cc3ccc(COCCOC)cc3[nH]2)CC1 [compound 291, 2-((4-(5-ethylpyrimidin-4-yl)piperazin-1-yl)methyl)-6-((2-methoxyethoxy)methyl)-1H-indole] | +++ (+++: <−6)
11 | CCc1cncnc1N1CCN(Cc2cc3ccc(OCCOC)cc3[nH]2)CC1 [compound 292, 2-((4-(5-ethylpyrimidin-4-yl)piperazin-1-yl)methyl)-6-(2-methoxyethoxy)-1H-indole] | ++ (++: −5 to −6)
12 | Cc1ncnc(N2CCN(Cc3nc4c(F)cccc4o3)CC2)c1C [compound 293, 2-((4-(5,6-dimethylpyrimidin-4-yl)piperazin-1-yl)methyl)-4-fluorobenzo[d]oxazole] | ++ (++: −5 to −6)
13 | Cc1ncnc(N2CCN(Cc3nc4c(C(F)(F)F)cccc4o3)CC2)c1C [compound 295, 2-((4-(5,6-dimethylpyrimidin-4-yl)piperazin-1-yl)methyl)-4-(trifluoromethyl)benzo[d]oxazole] | +++ (+++: <−6)
14 | Cc1ncnc(N2CCN(Cc3nc4cc(F)ccc4o3)CC2)c1C [compound 297, 2-((4-(5,6-dimethylpyrimidin-4-yl)piperazin-1-yl)methyl)-5-fluorobenzo[d]oxazole] | ++ (++: −5 to −6)
15 | Cc1ncnc(N2CCN(Cc3nc4cc(C(F)(F)F)ccc4o3)CC2)c1C [compound 299, 2-((4-(5,6-dimethylpyrimidin-4-yl)piperazin-1-yl)methyl)-5-(trifluoromethyl)benzo[d]oxazole] | +++ (+++: <−6)
16 | Cc1ncnc(N2CCN(Cc3nc4ccc(F)cc4o3)CC2)c1C [compound 301, 2-((4-(5,6-dimethylpyrimidin-4-yl)piperazin-1-yl)methyl)-6-fluorobenzo[d]oxazole] | +++ (+++: <−6)
17 | Cc1ncnc(N2CCN(Cc3nc4ccc(Cl)cc4o3)CC2)c1C [compound 302, 6-chloro-2-((4-(5,6-dimethylpyrimidin-4-yl)piperazin-1-yl)methyl)benzo[d]oxazole] | +++ (+++: <−6)
18 | Cc1ncnc(N2CCN(Cc3nc4ccc(C(F)(F)F)cc4o3)CC2)c1C [compound 303, 2-((4-(5,6-dimethylpyrimidin-4-yl)piperazin-1-yl)methyl)-6-(trifluoromethyl)benzo[d]oxazole] | +++ (+++: <−6)
19 | Cc1ncnc(N2CCN(Cc3nc4ccc(C(F)F)cc4o3)CC2)c1C [compound 304, 6-(difluoromethyl)-2-((4-(5,6-dimethylpyrimidin-4-yl)piperazin-1-yl)methyl)benzo[d]oxazole] | +++ (+++: <−6)

Row | Structure (SMILES) | COL1 Efficacy (LogEC50)
20 | Cc1ncnc(N2CCN(Cc3nc4cccc(F)c4o3)CC2)c1C [compound 305, 2-((4-(5,6-dimethylpyrimidin-4-yl)piperazin-1-yl)methyl)-7-fluorobenzo[d]oxazole] | ++ (++: −5 to −6)
21 | Cc1ncnc(N2CCN(Cc3nc4cccc(C(F)(F)F)c4o3)CC2)c1C [compound 307, 2-((4-(5,6-dimethylpyrimidin-4-yl)piperazin-1-yl)methyl)-7-(trifluoromethyl)benzo[d]oxazole] | ++ (++: −5 to −6)
22 | Cc1ncnc(N2CCN(Cc3nc4ccccc4o3)CC2)c1F [compound 309, 2-((4-(5-fluoro-6-methylpyrimidin-4-yl)piperazin-1-yl)methyl)benzo[d]oxazole] | ++ (++: −5 to −6)
23 | Cc1ncnc(N2CCN(Cc3nc4ccccc4o3)CC2)c1Cl [compound 310, 2-((4-(5-chloro-6-methylpyrimidin-4-yl)piperazin-1-yl)methyl)benzo[d]oxazole] | ++ (++: −5 to −6)
24 | Cc1ncnc(N2CCN(Cc3nc4ccccc4o3)CC2)c1C(F)(F)F [compound 311, 2-((4-(6-methyl-5-(trifluoromethyl)pyrimidin-4-yl)piperazin-1-yl)methyl)benzo[d]oxazole] | + (+: >−5)
25 | Fc1cncnc1N1CCN(Cc2nc3ccccc3o2)CC1 [compound 313] | + (+: >−5)
26 | Clc1cncnc1N1CCN(Cc2nc3ccccc3o2)CC1 [compound 314, 2-((4-(5-chloropyrimidin-4-yl)piperazin-1-yl)methyl)benzo[d]oxazole] | ++ (++: −5 to −6)
27 | FC(F)(F)c1cncnc1N1CCN(Cc2nc3ccccc3o2)CC1 [compound 315, 2-((4-(5-(trifluoromethyl)pyrimidin-4-yl)piperazin-1-yl)methyl)benzo[d]oxazole] | + (+: >−5)
28 | Cc1ncnc(N2CCN(C3(c4nc5ccccc5o4)CC3)CC2)c1C [compound 321, 2-(1-(4-(5,6-dimethylpyrimidin-4-yl)piperazin-1-yl)cyclopropyl)benzo[d]oxazole] | ++ (++: −5 to −6)
29 | Cn1cc(N2CCN(Cc3nc4ccccc4o3)CC2)nn1 [compound 322] | + (+: >−5)
30 | Cn1cc(N2CCN(Cc3nc4ccc(F)cc4o3)CC2)nn1 [compound 323] | −
31 | Cn1ccc(N2CCN(Cc3nc4ccccc4o3)CC2)n1 [compound 324, 2-((4-(1-methyl-1H-pyrazol-3-yl)piperazin-1-yl)methyl)benzo[d]oxazole] | + (+: >−5)
32 | Cn1nccc1N1CCN(Cc2nc3ccccc3o2)CC1 [compound 325] | −
33 | Cn1cnc(N2CCN(Cc3nc4ccccc4o3)CC2)n1 [compound 326, 2-((4-(1-methyl-1H-1,2,4-triazol-3-yl)piperazin-1-yl)methyl)benzo[d]oxazole] | + (+: >−5)
34 | Cc1ncnc(N2CCN(Cc3nc4ccc(F)cc4o3)CC2)c1Cl [compound 327, 2-((4-(5-chloro-6-methylpyrimidin-4-yl)piperazin-1-yl)methyl)-6-fluorobenzo[d]oxazole] | ++ (++: −5 to −6)
35 | CCn1cc(N2CCN(Cc3nc4ccccc4o3)CC2)nn1 [compound 328] | −
36 | Cc1ncnc(N2CCN(Cc3nc4ccc(F)cc4o3)CC2)c1C#N [compound 329, 4-(4-((6-fluorobenzo[d]oxazol-2-yl)methyl)piperazin-1-yl)-6-methylpyrimidine-5-carbonitrile] | ++ (++: −5 to −6)
37 | Cc1ncnc(N2CCN(Cc3nc4ccncc4o3)CC2)c1C [compound 330, 2-((4-(5,6-dimethylpyrimidin-4-yl)piperazin-1-yl)methyl)oxazolo[5,4-c]pyridine] | ++ (++: −5 to −6)
38 | Cn1cc(N2CCN(Cc3cc4ccc(F)cc4[nH]3)CC2)nn1 [compound 331] | −
